# Columns and labels:
# UBE2E1 = biological target: T1, UBE2E1 (Homo sapiens, UniProt P51965); assay: Thioester bond formation assay; conditions: same biochemical assay
# T1 construct: purchased Enzo Life Science BML-UW8710
# Description: (§1) An in vitro Ubiquitin-E2 thioester (TE) bond formation assay was performed as described (Enzo Life Science, #BML-UW9920-0001, Farmingdale, N.Y.). The reaction was prepared as follows: 10×E2 (UBE2N/Mms2, No. BML-UW9565; UbcH5a, No. BML-UW9050; or UbcH6, Prod. No. BML-UW8710) were incubated with UC-764864 or UC-764865 at 1 or 2 μM for 30 minutes at room temperature. After the incubation period, the following reagents were added to the reaction: distilled water, 10× ubiquitination buffer, inorganic pyrophosphatase solution (100 U/mL in 20 mM Tris-HCl, pH 7.5, Sigma, 83205, St. Louis, Mo.), 50 mM DTT, 0.1 M Mg-ATP, 20×E1 (recombinant human ubiquitin-activating enzyme) and 20× biotinylated ubiquitin to a final volume of 10 p.l. The mixture was incubated for 4 hours at 37° C. The reaction was stopped by adding 10 p.l 2× non-reducing gel loading buffer. 15 p.l of the samples were run on SDS-PAGE gels and transferred to PVDF membrane. […] After washing the membrane for 6×10 mins with TBS-T on a rocking platform, total ubiquitin was detected with ECL detection reagent (Pierce™ ECL Western Blotting Substrate, #32106, Appleton, Wis.) according to the manufacturer's instructions. Detect emitted signal with Biorad ChemiDoc™ MP and analyzed with Image lab software 6.0.1 (Biorad, Hercules, Calif.) or Image J [67]. […]
# UBE2D1 = biological target: T2, UBE2D1 (Homo sapiens, UniProt P51668); assay: Thioester bond formation assay; conditions: same biochemical assay
# T2 construct: purchased Enzo Life Science BML-UW9050
# T2 sequence (P51668 whole entry): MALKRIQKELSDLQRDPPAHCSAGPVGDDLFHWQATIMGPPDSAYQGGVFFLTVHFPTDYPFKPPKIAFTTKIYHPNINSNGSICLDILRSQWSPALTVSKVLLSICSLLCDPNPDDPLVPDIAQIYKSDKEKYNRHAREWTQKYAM
# Description: as §1
# MOLM-13 and THP-1 cells = assay: Immunoblot / qRT-PCR of NF-κB, STAT1 and IRF signaling; format: cell-based, human; conditions: 2 μM
# Description: mRNA expression of selected genes was corroborated by quantitative reverse transcriptase PCR (see primer sequences in Table 2) using cDNA with SYBR® Green or Taqman® gene expression assays (Applied Biosystems, Waltham, Mass.) on the StepOnePlus from Applied Biosystems. Abundance of each transcript was calculated using the Pfaffl Method. Actin or GAPDH were used as housekeeping genes.
# For immunoblots, total protein lysates were obtained from cells by lysing the samples in cold RIPA buffer (50 mM Tris-HCl, 150 mM NaCl, 1 mM EDTA, 1% Triton X-100 and 0.1% SDS), in the presence of PMSF, sodium orthovanadate, protease and phosphatase inhibitors. After being re-suspended in RIPA, cells were lysed in the cold room with rocking for 15 min. Protein concentration was evaluated by a BCA assay (Pierce, Waltham, Mass.). SDS sample buffer was added to the lysates and the proteins were separated by SDS-polyacrylamide gel electrophoresis, transferred to PVDF or nitrocellulose membranes, and analyzed by immunoblotting. […] Membranes were imaged with Biorad ChemiDoc™ MP and analyzed with Image lab software 6.0.1 (Biorad, Hercules, Calif.) or Image J [67].
# MOLM-13 cells = assay: Trypan blue viability and Caspase 3 cleavage immunoblot; format: cell-based, human
# Description: AML cell lines (5×10^3 cells/well) were seeded in 96-well plates and grown for 24 to 96 h in serum (10%)-containing medium in the presence or absence of inhibitors at the indicated concentrations. Proliferation was analyzed by means of an MTS assay using the CellTiter 96 Aqueous One Solution Cell Proliferation Assay (Promega, Madison, Wis., USA), according to the manufacturer's instructions. Data are mean with standard deviation from three independent experiments in technical triplicates. For the screening of 160 compounds from the UC library, the cell metabolic activity was assessed at 24 hours of treatment of MOLM-13 cells. Top 15 candidates were re-screened at 2 μM, and the cell metabolic activity was determined at 24 hours of treatment. In certain experiments, cell viability was determined by staining the cells with trypan blue at a 1/2 dilution and counting total number of viable cells upon treatment with UC-764864 or DMSO control. The cells were counted daily for 4 days using an automated cell counter (Countess II FL from Life Technologies). […] UC-764864 was added at the indicated concentrations and cells were incubated with drug for 3 days, at which point cell viability was measured by MTS according to manufacturer's instructions. […]
# T1 sequence (P51965 whole entry): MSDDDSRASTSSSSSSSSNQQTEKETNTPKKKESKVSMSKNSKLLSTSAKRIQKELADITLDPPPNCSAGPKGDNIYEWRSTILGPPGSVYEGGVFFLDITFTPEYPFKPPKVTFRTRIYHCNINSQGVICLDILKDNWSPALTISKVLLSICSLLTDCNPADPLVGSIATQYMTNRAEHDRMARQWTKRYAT
smiles,measurement,setting,value
"CCc1ccc(C(=O)C=CSc2nc3ccc(C)cc3[nH]2)cc1 [UC-764864, 1-(4-ethylphenyl)-3-[(6-methyl-1H-benzimidazol-2-yl)sulfanyl]prop-2-en-1-one]",interference with activity of UBE2E1,UBE2E1,did not interfere
same,interference with activity of UBE2D1,UBE2D1,did not interfere
same,"baseline NF-κB, STAT1, IRF7 and IRF1 activity in UBE2N-dependent AML cells",MOLM-13 and THP-1 cells,inhibition
same,"apoptosis (trypan blue uptake, cleavage of Caspase 3)",MOLM-13 cells,increase in apoptosis

# Reference: US20220267753A1, “RATIONAL THERAPEUTIC TARGETING OF ONCOGENIC IMMUNE SIGNALING STATES IN MYELOID MALIGNANCIES VIA THE UBIQUITIN CONJUGATING ENZYME UBE2N” (CHILDREN'S HOSPITAL MEDICAL CENTER, priority 2019, published 2022)
